Laboratory results as given in patent US9446047B2, “Substituted 2,3-dihydro-1H-inden-1-one retinoic acid-related orphan nuclear receptor antagonists for treating multiple sclerosis” (Arrien Pharmaceuticals LLC, priority 2013, dated 2016).
Like-named read-outs stand apart in the source and are kept apart here.

What was measured:
[1] = biological target: T1, RORγt (Homo sapiens, UniProt P51449); experiment: RORγt-activated IL-17A Prom/LUCPorter HEK 293 cells luciferase reporter assay; type: cell-based; details: IL-17A Prom/LUCPorter HEK 293 cells transfected with RORγt, 16 h; read-out: RORγt Cell Specific
T1 construct: host or cells: IL-17A Prom/LUCPorter HEK 293 cell line (IMGENEX, IML-301)
T1 sequence (P51449 1-497 isoform P51449-2): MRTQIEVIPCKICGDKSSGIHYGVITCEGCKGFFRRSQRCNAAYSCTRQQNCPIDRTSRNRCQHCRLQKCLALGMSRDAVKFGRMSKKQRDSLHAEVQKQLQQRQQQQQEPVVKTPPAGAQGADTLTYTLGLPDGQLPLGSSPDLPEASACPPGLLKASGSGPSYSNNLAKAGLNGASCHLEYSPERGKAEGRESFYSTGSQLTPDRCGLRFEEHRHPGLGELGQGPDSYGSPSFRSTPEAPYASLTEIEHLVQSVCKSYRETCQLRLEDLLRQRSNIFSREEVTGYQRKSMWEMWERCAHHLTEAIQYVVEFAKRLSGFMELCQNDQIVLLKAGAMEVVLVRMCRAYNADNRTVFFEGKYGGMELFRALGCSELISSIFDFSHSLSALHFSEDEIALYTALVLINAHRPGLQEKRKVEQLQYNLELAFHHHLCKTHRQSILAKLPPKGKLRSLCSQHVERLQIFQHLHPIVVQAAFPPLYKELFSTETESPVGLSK
Procedure: Antagonistic (or inverse agonistic) effects of the test compounds on the RORγt-activated IL-17A Prom/LUCPorter™ HEK 293 cells were analyzed and IC50 of each compound was evaluated. […] Luciferase activity was analyzed using the luciferase reporter assay reagent (IMGENEX, LS100). The data were analyzed using Excel and Prism software. Percent activity was defined as 100×(1−(Well−Control A)/(Control B−Control A)), where Control A was the wells containing cells transfected with RORγt and Control B was the wells containing non-transfected cells. Both Controls A and B were treated with vehicle alone.

[2] = biological target: T2, RORγ-LBD (RORγt) (Homo sapiens, UniProt P51449); experiment: TR-FRET RORγt Binding Assay; details: 6-His(GST)RORγ-LBD, SRC1_2 peptide, read-out: RORγt Binding
T2 construct: the 6-His-(GST) RORγ-LBD was used which expressed and purified from baculovirus infected Sf-21 insect cells; made in house; host or cells: baculovirus-infected Sf-21 insect cells
T2 sequence (P51449 269-508 limits assumed): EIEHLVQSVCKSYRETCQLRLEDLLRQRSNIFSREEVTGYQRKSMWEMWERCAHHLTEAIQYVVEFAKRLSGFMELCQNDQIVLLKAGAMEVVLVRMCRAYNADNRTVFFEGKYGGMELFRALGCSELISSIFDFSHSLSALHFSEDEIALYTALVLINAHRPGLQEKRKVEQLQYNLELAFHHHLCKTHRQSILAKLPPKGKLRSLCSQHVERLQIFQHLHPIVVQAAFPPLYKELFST
Procedure: TR-FRET RORγt Binding Assay: RORγ-LBD contains a 6-His and GST tag peptide from SRC1-2 an aminoterminal biotinyl-[…] was employed and the 6-His-(GST) RORγ-LBD was used which expressed and purified from baculovirus infected Sf-21 insect cells from Invitrogen and purified using glutathione sepharose. […] The peptide binding due to dose-curves of compounds was added the 0.1% DMSO. Fluorescence at wavelength 340 nm was read in each well of […] using an Envision fluorescence reader in Time Resolved mode after overnight incubation at 4° C.

[3] = system: IL-17 release from CD4+ T cells; experiment: Cytokine IL-17 estimation by HTRF, IL-17 release from CD4+ T cells; type: cell-based; details: Homo sapiens, read-out: IL-17 Inhibition
Excerpt: The assay was designed to assess the potency of test compounds on IL-17 cytokine release from CD4+ T cells. In order to aid in the identification of potent inhibitors, the IC50's determined for the test compounds IL-17 release from CD4+ T cells through the generation of 10 point Dose Response Curves (DRC). Assay methods used to quantify IL-17 secretion is HTRF (Homogenous Time Resolved Fluorescence). IL-17 secreted is detected by anti-IL-17 MAb labeled with XL665, the second MAb labeled with Cryptate, which binds to specific epitopes of human IL-17. Upon close proximity of both acceptor and donor energy transfer (FRET) occurs. This technique has been further enhanced by using long-lived labels combined with the detection on a time-resolved fluorescence basis, allowing […] of prompt fluorescence interferences.
The assay was performed according to manufacturer's instruction. All the reagents were reconstituted according to instructions provided. The reagents were dispensed into a half area 96-well plate in the following order: […] or sample, IL-17 MAbXL665 and 5 μL IL-17 Cryptate. For the negative control, the standard or sample is replaced by […]. The plate is covered with a plate sealer and incubated at rt for 2 h. Following incubation, the plate sealer is removed and the plate is read using HTRF protocol on Envision Microplate reader. All of the data analysis was carried out using Microsoft Excel (2010) and IC50 was determined using GraphPad Prism 4 software. % Inhibition of the test compounds were determined utilizing the following formula: % Inhibition=100−(100*(Average Test Compound Counts−Average Negative Control Counts)/(Average Positive Control Counts−Average Negative Control Counts)).
We have established robust in vitro cell-based HTRF assay for the activation and stimulation of CD4+ T lymphocytes to T helper 17 (Th17) cell differentiation and IL-17 production.

[4] = IL-17 release from CD4+ T cells, HTRF

Row | IC50 [1] [µM] | IC50 [2] [µM] | IC50 [3, 4] [µM] | SMILES | IC50 [3] [µM]
1 | < 0.5 | < 0.5 | < 0.5 | CCS(=O)(=O)Oc1cc2c(cc1OC)CC(Cc1ncccc1C(F)(F)F)C2=O (stereo not drawn) [compound 191] | –
2 | > 1 | > 1 | < 0.5 | COc1cc2c(cc1Cl)CC(Cc1ccc(SC(F)(F)F)cc1)C2=O (stereo not drawn) [compound 172] | –
3 | < 0.5 | < 0.5 | < 0.5 | COc1cc2c(cc1N1CCOCC1)CC(Cc1ncc(C(O)(C(F)(F)F)C(F)(F)F)cc1C(F)(F)F)C2=O (stereo not drawn) [compound 268] | –
4 | > 1 | > 1 | > 1 | COc1cc2c(cc1N1CCC(F)CC1)CC(Cc1ncccc1C(F)(F)F)C2=O (stereo not drawn) [compound 151, 5-(4-fluoropiperidin-1-yl)-6-methoxy-2-((3-(trifluoromethyl)pyridin-2-yl)methyl)-2,3-dihydro-1H-inden-1-one] | –
5 | > 1 | < 0.5 | < 0.5 | COc1cc2c(cc1-c1ccccc1OC(F)(F)F)CC(Cc1ncccc1C(F)(F)F)C2=O (stereo not drawn) [compound 213] | –
6 | > 1 | > 1 | < 0.5 | COc1ccc2c(c1OC)CC(Cc1ncccc1C(F)(F)F)C2=O (stereo not drawn) [compound 169] | –
7 | > 1 | < 0.5 | < 0.5 | COc1ccc2c(c1)CC(Cc1ncccc1C(F)(F)F)C2=O (stereo not drawn) [compound 184] | –
8 | > 10 | > 1 | > 1 | COc1cc2c(cc1N1CCOCC1)CC(Cc1c(Cl)cccc1C(F)(F)F)C2=O (stereo not drawn) [compound 59, 2-(2-chloro-6-(trifluoromethyl)benzyl)-6-methoxy-5-morpholino-2,3-dihydro-1H-inden-1-one] | –
9 | > 1 | > 1 | > 1 | COc1cc2c(c(N3CCC(C)CC3)c1OC)CC(Cc1ncccc1C(F)(F)F)C2=O (stereo not drawn) [compound 133, 5,6-dimethoxy-4-(4-methylpiperidin-1-yl)-2-((3-(trifluoromethyl)pyridin-2-yl)methyl)-2,3-dihydro-1H-inden-1-one] | –
10 | < 0.5 | < 0.5 | < 0.5 | COc1cc2c(cc1N1CCN(CCO)CC1)CC(Cc1ncccc1C(F)(F)F)C2=O (stereo not drawn) [compound 251] | –
11 | > 1 | > 1 | < 0.5 | COc1cc2c(cc1Cl)CC(Cc1ncccc1C(F)(F)F)C2=O (stereo not drawn) [compound 174] | –

Further lines, the compound ahead of its results:

Row | SMILES | IC50 [1] [µM] | IC50 [2] [µM] | IC50 [3, 4] [µM] | IC50 [3] [µM]
12 | COc1cc2c(cc1N1CCOCC1)CC(Cc1cc(C(F)(F)F)cc(C(O)(C(F)(F)F)C(F)(F)F)c1)C2=O (stereo not drawn) [compound 229, 2-(3-(1,1,1,3,3,3-hexafluoro-2-hydroxypropan-2-yl)-5-(trifluoromethyl)benzyl)-6-methoxy-5-morpholino-2,3-dihydro-1H-inden-1-one] | < 0.5 | < 0.5 | < 0.5 | –
13 | COc1ccc2c(c1)CC(Cc1ccc(SC(F)(F)F)cc1)C2=O (stereo not drawn) [compound 182] | > 1 | > 1 | < 0.5 | –
14 | COc1cc2c(cc1N1CCOCC1)CC(Cc1cc(C(F)(F)F)cnc1Cl)C2=O (stereo not drawn) [compound 62, 2-((2-chloro-5-(trifluoromethyl)pyridin-3-yl)methyl)-6-methoxy-5-morpholino-2,3-dihydro-1H-inden-1-one] | > 1 | > 1 | – | < 0.5
15 | COc1cc2c(cc1N1CCOCC1)CC(Cc1cc(C(F)(F)F)ccc1NC(=O)C(C)(C)C)C2=O (stereo not drawn) [compound 65, N-(2-((6-methoxy-5-morpholino-1-oxo-2,3-dihydro-1H-inden-2-yl)methyl)-4-(trifluoromethyl)phenyl)pivalamide] | > 1 | > 10 | > 1 | –
16 | COc1cc2c(cc1N1CCOCC1)CC(Cc1ccc(Cl)c(C(F)(F)F)c1)C2=O (stereo not drawn) [compound 89] | > 1 | > 1 | < 0.5 | –
17 | COc1cc2c(cc1N1CCOCC1)CC(Cc1cncc(C(O)(C(F)(F)F)C(F)(F)F)c1)C2=O (stereo not drawn) [compound 245] | < 0.5 | > 1 | > 1 | –
18 | COc1cc2c(cc1N1CCOCC1)CC(Cc1ccc(SC(F)(F)F)cc1)C2=O (stereo not drawn) [compound 74, 6-methoxy-5-morpholino-2-(4-((trifluoromethyl)thio)benzyl)-2,3-dihydro-1H-inden-1-one] | > 10 | > 10 | > 1 | –
19 | COc1cc2c(cc1NC1CCN(C)CC1)CC(Cc1ccc(SC(F)(F)F)cc1)C2=O (stereo not drawn) [compound 144] | > 1 | > 1 | > 1 | –
20 | COc1cc2c(cc1N1CCN(C)CC1)CC(Cc1cc(C(F)(F)F)cc(C(O)(C(F)(F)F)C(F)(F)F)c1)C2=O (stereo not drawn) [compound 240, 2-(3-(1,1,1,3,3,3-hexafluoro-2-hydroxypropan-2-yl)-5-(trifluoromethyl)benzyl)-6-methoxy-5-(4-methylpiperazin-1-yl)-2,3-dihydro-1H-inden-1-one] | < 0.5 | < 0.5 | < 0.5 | –
21 | COc1cc2c(cc1N1CCOCC1)CC(Cc1cc(C(F)(F)F)ccc1Cl)C2=O (stereo not drawn) [compound 158] | > 1 | < 0.5 | < 0.5 | –
22 | COc1cc2c(cc1N1CCN(C)CC1)CC(Cc1cncc(C(O)(C(F)(F)F)C(F)(F)F)c1)C2=O (stereo not drawn) [compound 256] | < 0.5 | < 0.5 | < 0.5 | –
23 | COc1cc2c(cc1N1CCN(C)CC1)CC(Cc1ccc(SC(F)(F)F)cc1)C2=O (stereo not drawn) [compound 106] | > 1 | < 0.5 | > 1 | –
24 | COc1cc2c(cc1N1CCOCC1)C/C(=C\c1cc(Br)cc(OC(F)(F)F)c1)C2=O [compound 30, (E)-2-(3-bromo-5-(trifluoromethoxy)benzylidene)-6-methoxy-5-morpholino-2,3-dihydro-1H-inden-1-one] | > 10 | > 10 | > 1 | –
25 | COc1cc2c(cc1N1CCOCC1)CC(CC1CCN(Cc3ccccc3)CC1)C2=O (stereo not drawn) [compound 23, 2-((1-benzylpiperidin-4-yl)methyl)-6-methoxy-5-morpholino-2,3-dihydro-1H-inden-1-one] | > 1 | < 0.5 | < 0.5 | –
26 | COc1cc2c(cc1N1CCOCC1)CC(Cc1cccc(C(O)(C(F)(F)F)C(F)(F)F)n1)C2=O (stereo not drawn) [compound 266] | < 0.5 | < 0.5 | < 0.5 | –
27 | COc1cc2c(cc1N1CCOCC1)CC(Cc1cc(Cl)cc(C(F)(F)F)c1)C2=O (stereo not drawn) [compound 50, 2-(3-chloro-5-(trifluoromethyl)benzyl)-6-methoxy-5-morpholino-2,3-dihydro-1H-inden-1-one] | > 1 | < 0.5 | > 1 | –
